Test system: Staphylococcus aureus USA 300 (LAC)
Assay: MIC assay
Assay type: cell-based
Experimental: MIC determinations and killing assays were performed in Mueller Hinton Broth (MHB; Roth, Karlsruhe, Germany).
S. aureus RN4220, S. aureus USA300 (LAC), S. aureus USA300 (NRS384), S. aureus SA113, S. aureus Mu50, E. coli DH5α and P. aeruginosa PAO1 were grown overnight in MHB. […] All strains were incubated at 37° C. under continuous shaking. Early log-phase grown bacteria were adjusted in MHB to 1×10^6 cells/well in microtiter plates (MTP), mixed with varying concentrations of the antibiotic and incubated at 37° C. for 24 h under continuous shaking. […] The assays were performed in 96-well microtiter plates.
MIC assays for the antibiotics used in this study were performed as described above. […] Fresh MHB was inoculated 1:10,000 with an overnight culture of S. aureus USA300 LAC and was incubated at 37° C. under continuous shaking. Cells were grown to early log phase, adjusted to 1×10^6 cells/mL, and dispensed into 96-well MTPs with 100 μL per well. […] After 24 h incubation at 37° C. under continuous shaking, growth was determined with a microplate reader at an OD600 and cells from the second highest concentration of 0.25×MIC, 0.5×MIC, 1×MIC, 1.5×MIC, 2×MIC and 4×MIC from the appropriate antibiotic.

With `CO[C@H]1/C=C/O[C@@]2(C)Oc3c(C)c(O)c4c(O)c(c(/C=N/N5CCN(C)CC5)c(O)c4c3C2=O)NC(=O)/C(C)=C\C=C\[C@H](C)[C@H](O)[C@@H](C)[C@@H](O)[C@@H](C)[C@H](OC(C)=O)[C@@H]1C` [rifampicin] the “1×MIC against S. aureus USA300” value was 0.01 µg/mL.

— patent US10774113B2, “Anti-infective compound” (priority 2015, dated 2020)
